Data on one compound can be found in patent US9975881B2, “Compound” (ASTRAZENECA AB, priority 2011, dated 2018).

A short description of data set [1]: Human hepatic intrinsic clearance (CLint) from human hepatocyte incubations. The format is in vitro ADME. The note with it: cryopreserved human hepatocytes in suspension, 1×10^6 cells/ml, 1 μM compound, no HSA, pH 7.4. An excerpt:
Measurement of Human Hepatic Intrinsic Clearance (CLint)
For the majority of drugs, a large component of their plasma clearance is contributed by hepatic metabolism. Intrinsic clearance (CLint) is a measure of the potential of a compound to undergo metabolism and can be related to hepatic clearance in vivo from a consideration of plasma protein binding and liver blood flow. Therefore, CLint may be used as a key parameter in predicting the half-life of a compound in humans. […]
An aliquot of cell suspension (0.2 mL) was diluted with 0.2 ml protein-free suspension buffer. […] The cells were then counted (central square only) using an inverted microscope, viable cells being able to exclude the dye and non-viable cells being stained. The percentage of viable cells in the preparation was calculated thus:
The concentration of viable cells was calculated: Viable cells ml^−1=Viable cell count×10^4×3×50 […]
At appropriate time points (e.g. 5, 15, 30, 45, 60, 75, 90 and 120 min), aliquots (40 μl) were taken out of the incubation mix and added to 3 volumes of methanol to terminate the reactions and denature the hepatocytes. […] The supernatants were transferred to micro titre plates and analysed by HPLC-MSMS using the following method as a suitable starting point: […]

The test system of another data set is plasma proteins. Nature of the data set: Human plasma protein binding (hPPB), equilibrium dialysis. The class given is in vitro ADME. The note with it: human plasma pH 7.4, 37° C., 18 hours, 10 μM. As to the method:
Measurement of Human Plasma Protein Binding (hPPB)
The extent of binding of a drug to plasma proteins is a crucial factor in determining in vivo potency and pharmacokinetics. The method used for determining the extent of plasma protein binding involves equilibrium dialysis of the compound between plasma and buffer at 37° C. The concentrations of compound in the plasma and buffer are then determined using high pressure liquid chromatography (HPLC) with mass spectroscopy (MS) detection. The dialysis method involves the use of mixtures of up to 10 compounds simultaneously. At the concentrations used in the assay, there is no significant difference in the results when compounds are run singly or in mixtures.
Membranes (molecular weight cut-off 5000) were first prepared by soaking in the dialysis buffer for a minimum of 1 hour. […]
The samples and standards were then analysed using HPLC with MS detection, which allows deconvolution of the mixtures of compounds. […]
The chromatograms were processed using MassLynx software that automatically calculates a calibration curve for each compound in a mixture and then interpolates the concentrations of buffer and plasma samples. […] The percentage bound was calculated from the MassLynx data using the following equation: […]
The % free (100-% bound) for each compound was calculated from the concentration data, and then recorded.

One may read the hepatocyte CLint as a measure of how fast metabolising enzymes remove a compound, apart from limits set by blood flow. Higher therefore signals faster metabolism.

On to `CC1CN(S(=O)(=O)Nc2cc(O[C@H](C)[C@@H](O)CO)nc(SCc3ccc(F)cc3)n2)C1` [Example 1, N-(6-((2R,3S)-3,4-Dihydroxybutan-2-yloxy)-2-(4-fluorobenzylthio)pyrimidin-4-yl)-3-methylazetidine-1-sulfonamide], for which the hepatocyte CLint at 1 μM in data set [1] amounted to 2.9 µL/min/1e6 cells. In the data set with plasma proteins, the “human plasma protein binding (% free)” value is 0.11 (±0.05) % free.
